Measurements from ChEMBL document CHEMBL5365394, “Design, synthesis and biological evaluation of novel spiro-quinazolinone derivatives as chitin synthase inhibitors and antifungal agents” (Eur J Med Chem, 2023).
≈ marks a conversion by molar mass, not a printed value. *1 amine or outer side, *2 acyl side, *3 side chain or, on linkers, in order; H or OH if unused. Where a SMILES comes first, the peptide text is derived from it. Bridges are numbered along the chain shown (N, C = ends). [ ]: non-standard residue; d: D form. The star is where a group is joined. hTyr(3S-OH,4S-OH,3'-OSO3H) = N[C@H](C(=O)O)[C@H](O)[C@@H](O)c1ccc(O)c(OS(=O)(=O)O)c1; Orn(4R-OH,5R-OH) = O=C([C@H](C[C@@H](O)[C@@H](O)N[*:3])N[*:1])[*:2]; Pro(3S-OH,4S-Me) = C[C@H]1CN[C@H](C(=O)O)[C@H]1O; X1 = CCCCCOc1ccc(-c2cc(-c3ccc(C(=O)*)cc3)no2)cc1; Gln(3R-OH) = NC(=O)C[C@@H](O)[C@H](N)C(=O)O; Hyp = O=C(O)[C@@H]1C[C@@H](O)CN1

Legend:
Candida tropicalis = test: Inhibition of Candida tropicalis ATCC 750 chitin synthase using […] as substrate at 300 ug/ml incubated for 1 hr by absorbance based assay relative to control; conditions: dose 300.0 µg/ml
Candida albicans [1] = test: Antifungal activity against Candida albicans ATCC 76615 assessed as fungal growth inhibition incubated for 24 hrs by two-fold serial dilution method; type: functional
Aspergillus flavus [2] = test: Antifungal activity against Aspergillus flavus ATCC 16870 assessed as fungal growth inhibition incubated for 24 hrs by two-fold serial dilution method; type: functional
Aspergillus fumigatus [3] = test: Antifungal activity against Aspergillus fumigatus GIMCC 3.19 assessed as fungal growth inhibition incubated for 24 hrs by two-fold serial dilution method; type: functional
Cryptococcus neoformans [4] = test: Antifungal activity against Cryptococcus neoformans ATCC 32719 assessed as fungal growth inhibition incubated for 24 hrs by two-fold serial dilution method; type: functional
[5] = Inhibition of Candida tropicalis ATCC 750 chitin synthase using UDP-GlcNAc as substrate incubated for 1 hr by absorbance based assay
Candida albicans [6] = test: Antifungal activity against Fluconazole-resistant Candida albicans ATCC 76615R assessed as fungal growth inhibition; type: functional
Aspergillus flavus [7] = test: Antifungal activity against Fluconazole-resistant Aspergillus flavus ATCC 16870R assessed as fungal growth inhibition; type: functional
Aspergillus fumigatus [8] = test: Antifungal activity against Fluconazole-resistant Aspergillus fumigatus GIMCC 3.19R assessed as fungal growth inhibition; type: functional
Cryptococcus neoformans [9] = test: Antifungal activity against Fluconazole-resistant Cryptococcus neoformans ATCC 32719R assessed as fungal growth inhibition; type: functional
Candida albicans [10] = test: Antifungal activity against Micafungin-resistant Candida albicans ATCC 76615R assessed as fungal growth inhibition; type: functional
[11] = Cytotoxicity against human A549 cells assessed as cell viability at 4 ug/ml incubated for 24 hrs by CCK-8 assay relative to control; type: toxicity, cell-based; conditions: at 4 µg/mL, read-out: Activity
[12] = Cytotoxicity against human A549 cells assessed as cell viability at 8 ug/ml incubated for 24 hrs by CCK-8 assay relative to control; type: toxicity, cell-based; conditions: at 8 µg/mL, read-out: Activity
[13] = Cytotoxicity against human A549 cells assessed as cell viability at 16 ug/ml incubated for 24 hrs by CCK-8 assay relative to control; type: toxicity, cell-based; conditions: at 16 µg/mL, read-out: Activity
[14] = Cytotoxicity against human A549 cells assessed as cell viability at 32 ug/ml incubated for 24 hrs by CCK-8 assay relative to control; type: toxicity, cell-based; conditions: at 32 µg/mL, read-out: Activity
[15] = Cytotoxicity against human A549 cells assessed as cell viability at 64 ug/ml incubated for 24 hrs by CCK-8 assay relative to control; type: toxicity, cell-based; conditions: at 64 µg/mL, read-out: Activity
Aspergillus flavus [16] = test: Antifungal activity against Aspergillus flavus ATCC 16870 assessed as inhibition of cell wall synthesis incubated for 24 hrs in presence of sorbitol; type: functional
Candida albicans [17] = test: Antifungal activity against Candida albicans ATCC 76615 assessed as inhibition of cell wall synthesis incubated for 24 hrs in presence of sorbitol; type: functional
Aspergillus fumigatus [18] = test: Antifungal activity against Aspergillus fumigatus GIMCC 3.19 assessed as inhibition of cell wall synthesis incubated for 24 hrs in presence of sorbitol; type: functional
Cryptococcus neoformans [19] = test: Antifungal activity against Cryptococcus neoformans ATCC 32719 assessed as inhibition of cell wall synthesis incubated for 24 hrs in presence of sorbitol; type: functional
Candida albicans [20] = test: Antifungal activity against Candida albicans ATCC 76615 assessed as inhibition of cell wall synthesis incubated for 24 hrs in absence of sorbitol; type: functional
Aspergillus flavus [21] = test: Antifungal activity against Aspergillus flavus ATCC 16870 assessed as inhibition of cell wall synthesis incubated for 24 hrs in absence of sorbitol; type: functional
Aspergillus fumigatus [22] = test: Antifungal activity against Aspergillus fumigatus GIMCC 3.19 assessed as inhibition of cell wall synthesis incubated for 24 hrs in absence of sorbitol; type: functional
Cryptococcus neoformans [23] = test: Antifungal activity against Cryptococcus neoformans ATCC 32719 assessed as inhibition of cell wall synthesis incubated for 24 hrs in absence of sorbitol; type: functional
A549 = test: Cytotoxicity against human A549 cells assessed as cell viability incubated for 24 hrs at 128 ug/ml by CCK-8 assay relative to control; conditions: dose 128 µg/ml

Compound | inhibition (Candida tropicalis) | MIC (Candida albicans [1]) | MIC (Aspergillus flavus [2]) | MIC (Aspergillus fumigatus [3]) | MIC (Cryptococcus neoformans [4]) | IC50 [5] | other results
O=C(/C=C/C(=O)Nc1ccccc1Cl)Nc1ccc2c(c1)C(=O)NC1(CCOC1)N2 (stereo not given) | 53.7% | 128 µg/mL (≈ 300 µM) | 128 µg/mL (≈ 300 µM) | 64 µg/mL (≈ 150 µM) | 128 µg/mL (≈ 300 µM) | – | –
O=C(/C=C/C(=O)Nc1ccc2c(c1)C(=O)NC1(CCOC1)N2)Nc1ccc(Br)cc1 (stereo not given) | 63.1% | 32 µg/mL (≈ 67.9 µM) | 64 µg/mL (≈ 136 µM) | 64 µg/mL (≈ 136 µM) | 32 µg/mL (≈ 67.9 µM) | – | –
O=C(/C=C/C(=O)Nc1ccc2c(c1)C(=O)NC1(CCSC1)N2)Nc1ccccc1 (stereo not given) | 44.2% | 128 µg/mL (≈ 313 µM) | 256 µg/mL (≈ 627 µM) | 128 µg/mL (≈ 313 µM) | 128 µg/mL (≈ 313 µM) | 1870 µM | –
O=C(/C=C/C(=O)Nc1ccc2c(c1)C(=O)NC1(CCSC1)N2)Nc1cccc(Cl)c1 (stereo not given) | 60.9% | 32 µg/mL (≈ 72.2 µM) | 64 µg/mL (≈ 144 µM) | 32 µg/mL (≈ 72.2 µM) | 64 µg/mL (≈ 144 µM) | 282 µM | –
O=C(/C=C/C(=O)Nc1ccc2c(c1)C(=O)NC1(CCSC1)N2)Nc1cccc(C(F)(F)F)c1 (stereo not given) | 58.1% | 128 µg/mL (≈ 269 µM) | 64 µg/mL (≈ 134 µM) | 64 µg/mL (≈ 134 µM) | 64 µg/mL (≈ 134 µM) | 353 µM | –
O=C(/C=C/C(=O)Nc1ccc2c(c1)C(=O)NC1(CCSC1)N2)Nc1cccc(Br)c1 (stereo not given) | 67.5% | 32 µg/mL (≈ 65.7 µM) | 32 µg/mL (≈ 65.7 µM) | 64 µg/mL (≈ 131 µM) | 32 µg/mL (≈ 65.7 µM) | 153 µM | –
O=C(/C=C/C(=O)Nc1ccccc1F)Nc1ccc2c(c1)C(=O)NC1(CCSC1)N2 (stereo not given) | 52.2% | 64 µg/mL (≈ 150 µM) | 128 µg/mL (≈ 300 µM) | 128 µg/mL (≈ 300 µM) | 128 µg/mL (≈ 300 µM) | 653 µM | –
Cc1cccc(NC(=O)/C=C/C(=O)Nc2ccc3c(c2)C(=O)NC2(CCSC2)N3)c1 (stereo not given) | 47.2% | 64 µg/mL (≈ 151 µM) | 128 µg/mL (≈ 303 µM) | 128 µg/mL (≈ 303 µM) | 64 µg/mL (≈ 151 µM) | 800 µM | –
O=C(/C=C/C(=O)Nc1ccc2c(c1)C(=O)NC1(CCSC1)N2)Nc1ccc(Cl)cc1 (stereo not given) | 58% | 64 µg/mL (≈ 144 µM) | 128 µg/mL (≈ 289 µM) | 64 µg/mL (≈ 144 µM) | 64 µg/mL (≈ 144 µM) | 433 µM | –
O=C(/C=C/C(=O)Nc1ccccc1Cl)Nc1ccc2c(c1)C(=O)NC1(CCCC1)N2 | 38.7% | 128 µg/mL (≈ 301 µM) | 256 µg/mL (≈ 603 µM) | 256 µg/mL (≈ 603 µM) | 128 µg/mL (≈ 301 µM) | – | –
O=C(/C=C/C(=O)Nc1ccc2c(c1)C(=O)NC1(CCCC1)N2)Nc1ccc(Br)cc1 | 56.4% | 128 µg/mL (≈ 273 µM) | 128 µg/mL (≈ 273 µM) | 128 µg/mL (≈ 273 µM) | 64 µg/mL (≈ 136 µM) | – | –
O=C(/C=C/C(=O)Nc1ccc2c(c1)C(=O)NC1(CCCC1)N2)Nc1ccc(Cl)cc1 | 43.1% | 256 µg/mL (≈ 603 µM) | 128 µg/mL (≈ 301 µM) | 128 µg/mL (≈ 301 µM) | 128 µg/mL (≈ 301 µM) | – | –
O=C(/C=C/C(=O)Nc1ccc2c(c1)C(=O)NC1(CCOC1)N2)Nc1ccc(F)c(Cl)c1 (stereo not given) | 56.8% | 128 µg/mL (≈ 288 µM) | 64 µg/mL (≈ 144 µM) | 64 µg/mL (≈ 144 µM) | 128 µg/mL (≈ 288 µM) | – | –
OC(Cn1cncn1)(Cn1cncn1)c1ccc(F)cc1F [FLUCONAZOLE] | – | 2 µg/mL (≈ 6.53 µM) | 4 µg/mL (≈ 13.1 µM) | 8 µg/mL (≈ 26.1 µM) | 4 µg/mL (≈ 13.1 µM) | – | MIC (Candida albicans [6]): 256 µg/mL (≈ 836 µM); MIC (Aspergillus flavus [7]): 256 µg/mL (≈ 836 µM); MIC (Aspergillus fumigatus [8]): 256 µg/mL (≈ 836 µM); MIC (Cryptococcus neoformans [9]): 256 µg/mL (≈ 836 µM)
O=C(/C=C/C(=O)Nc1ccccc1Cl)Nc1ccc2c(c1)C(=O)NC1(CCSC1)N2 (stereo not given) | 58.4% | 32 µg/mL (≈ 72.2 µM) | 64 µg/mL (≈ 144 µM) | 64 µg/mL (≈ 144 µM) | 64 µg/mL (≈ 144 µM) | 420 µM | –
CCCCCOc1ccc(-c2cc(-c3ccc(C(=O)N[C@H]4C[C@@H](O)[C@@H](O)NC(=O)[C@@H]5[C@@H](O)[C@@H](C)CN5C(=O)[C@H]([C@H](O)CC(N)=O)NC(=O)[C@H]([C@H](O)[C@@H](O)c5ccc(O)c(OS(=O)(=O)O)c5)NC(=O)[C@@H]5C[C@@H](O)CN5C(=O)[C@H]([C@@H](C)O)NC4=O)cc3)no2)cc1 [MICAFUNGIN] (X1-[Orn(4R-OH,5R-OH)]T[Hyp][hTyr(3S-OH,4S-OH,3'-OSO3H)][Gln(3R-OH)][Pro(3S-OH,4S-Me)]; lactam 1-C) | – | – | – | – | – | – | MIC (Candida albicans [10]): 256 µg/mL (≈ 202 µM)
O=C(/C=C/C(=O)Nc1ccc2c(c1)C(=O)NC1(CCSC1)N2)Nc1ccc(F)c(Cl)c1 (stereo not given) | 64.4% | 16 µg/mL (≈ 34.7 µM) | 32 µg/mL (≈ 69.4 µM) | 64 µg/mL (≈ 139 µM) | 32 µg/mL (≈ 69.4 µM) | 267 µM | –
Cc1ccc(NC(=O)/C=C/C(=O)Nc2ccc3c(c2)C(=O)NC2(CCSC2)N3)cc1 (stereo not given) | 48.2% | 64 µg/mL (≈ 151 µM) | 128 µg/mL (≈ 303 µM) | 128 µg/mL (≈ 303 µM) | 128 µg/mL (≈ 303 µM) | 883 µM | –
NC(=O)OC[C@H](O)[C@@H](O)[C@H](N)C(=O)N[C@H](C(=O)O)[C@H]1O[C@@H](n2cc(CO)c(=O)[nH]c2=O)[C@H](O)[C@@H]1O [POLYOXIN B] | 84.7% | 8 µg/mL (≈ 15.8 µM) | 16 µg/mL (≈ 31.5 µM) | 16 µg/mL (≈ 31.5 µM) | 16 µg/mL (≈ 31.5 µM) | 93.5 µM | viability at 24 h, 4 ug/ml [11]: 99.3%; viability at 24 h, 8 ug/ml [12]: 98.7%; viability at 24 h, 16 ug/ml [13]: 97.9%; viability at 24 h, 32 ug/ml [14]: 92.7%; viability at 24 h, 64 ug/ml [15]: 91.2%; MIC (Aspergillus flavus [16]): 128 µg/mL; MIC (Candida albicans [17]): 128 µg/mL; MIC (Aspergillus fumigatus [18]): 128 µg/mL; MIC (Cryptococcus neoformans [19]): 64 µg/mL; MIC (Candida albicans [20]): 8 µg/mL (≈ 15.8 µM); MIC (Aspergillus flavus [21]): 16 µg/mL (≈ 31.5 µM); MIC (Aspergillus fumigatus [22]): 16 µg/mL (≈ 31.5 µM); MIC (Cryptococcus neoformans [23]): 16 µg/mL (≈ 31.5 µM); viability (A549): 84.3%
O=C(/C=C/C(=O)Nc1ccc2c(c1)C(=O)NC1(CCCC1)N2)Nc1ccc(F)c(Cl)c1 | 48.2% | 128 µg/mL (≈ 289 µM) | 128 µg/mL (≈ 289 µM) | 128 µg/mL (≈ 289 µM) | 128 µg/mL (≈ 289 µM) | – | –
O=C(/C=C/C(=O)Nc1ccc2c(c1)C(=O)NC1(CCSC1)N2)Nc1ccc(F)cc1 (stereo not given) | 54.6% | 64 µg/mL (≈ 150 µM) | 128 µg/mL (≈ 300 µM) | 128 µg/mL (≈ 300 µM) | 64 µg/mL (≈ 150 µM) | 593 µM | –
O=C(/C=C/C(=O)Nc1ccc2c(c1)C(=O)NC1(CCOC1)N2)Nc1ccc(Cl)cc1 (stereo not given) | 49.2% | 128 µg/mL (≈ 300 µM) | 128 µg/mL (≈ 300 µM) | 128 µg/mL (≈ 300 µM) | 128 µg/mL (≈ 300 µM) | – | –
